These results are taken from patent US8257755B2, “Metabolic syndrome-improving agent and medicine, supplement, functional food and food additive containing the same” (ARKRAY, Inc., priority 2005, dated 2012).

Structures are written as SMILES.

For one experiment, the target named is T1, PPARα (Homo sapiens, UniProt Q07869).
T1 construct: expressed in transfected cells; host or cells: CV-1 cells (African green monkey kidney)
T1 sequence (Q07869 1-468): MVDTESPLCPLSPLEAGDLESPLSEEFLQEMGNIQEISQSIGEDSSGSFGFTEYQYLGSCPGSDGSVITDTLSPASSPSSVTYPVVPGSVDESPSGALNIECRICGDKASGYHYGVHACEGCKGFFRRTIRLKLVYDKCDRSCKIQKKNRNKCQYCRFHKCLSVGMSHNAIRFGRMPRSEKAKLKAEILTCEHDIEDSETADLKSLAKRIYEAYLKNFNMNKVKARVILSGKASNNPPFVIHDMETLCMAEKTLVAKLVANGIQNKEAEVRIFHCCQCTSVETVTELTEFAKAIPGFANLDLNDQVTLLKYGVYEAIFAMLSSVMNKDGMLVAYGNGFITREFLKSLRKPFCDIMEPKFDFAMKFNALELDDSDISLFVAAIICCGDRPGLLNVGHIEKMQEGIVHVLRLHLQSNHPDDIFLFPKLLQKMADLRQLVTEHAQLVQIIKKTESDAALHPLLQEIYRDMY
Put plainly: PPARα ligand activity, GAL4-hPPARα luciferase reporter assay in CV-1 cells. It counts as cell-based. Conditions: relative to non-treatment control (DMSO) = 100, average ± standard error. The protocol: CV-1 cells (cultured cells derived from kidneys of male African green monkeys) were implanted on 24-well culture plates so as to be […]/well and cultured at 37° C. in 5% CO2 for 24 hours. As a medium, DMEM (Dulbecco's Modified Eagle Medium; manufactured by GIBCO) containing 10% FBS (fetal bovine serum) and a 10 mg/mL penicillin streptomycin solution was used. Using the Lipofectamine system (trade name; manufactured by Invitrogen Corporation), pM-hPPARγ and p4×UASg-tk-luc were transfected. The above-noted pM-hPPARγ was a chimeric protein-expression plasmid binding GAL4 gene (amino acid sequence 1-147) and human PPARγ ligand-binding site gene (amino acid sequence 204-505), whereas the above-noted p4×UASg-tk-luc was a reporter plasmid containing four copies of a responsive element (UAS) of GAL 4 upstream of a luciferase gene. About 24 hours after the transfection, samples of bergamottin at respective concentrations (0.1, 1.0, 10, 50 and 100 μM) were added to the above-described media, followed by 24 hour incubation. The above-noted samples were prepared by dissolving bergamottin in dimethyl sulfoxide (DMSO). Instead of the above-noted sample, DMSO was used for non-treated control media. After the incubation, measurement was made using a Dual-Luciferase Reporter Gene Assay system (trade name; manufactured by Promega Corporation).
Similarly to the measurement group, as a control group, pM (a plasmid from which PPARγ ligand-binding site gene was removed) was used for measurement instead of pM-hPPARγ. For each sample, the ratio between average luminescence intensities of the measurement group and the control group (n=4) (measurement group/control group) was calculated, and an activity relative to the non-treatment control was determined as the PPARγ ligand activity of the sample.
The PPARα ligand activity of bergamottin was measured similarly to Example 1 except that pM-hPPARα was used instead of pM-hPPARγ and the bergamottin concentrations were set to 0.1, 1.0, 5.0, 10, 20, 50 and 80 μM.
In general terms: In a reporter assay the amount or activity of a reporter protein is the signal.

For a further experiment, the system named is 3T3-L1 cells. In words: Adiponectin secretion amount in 3T3-L1 medium supernatant by ELISA. The conditions noted are these: medium 7 days after differentiation induction, non-treatment control 4.27 ± 0.32, average ± standard error. It counts as cell-based, mouse. As to the method: Next, culture preadipocytes 3T3-L1 were thawed, inoculated in a 100 mm dish and cultured until 3T3-L1 cells reached about 80% confluence. A single dish of 3T3-L1 that had reached about 80% confluence was subcultured to a single 6-well plate and further cultured until the 3T3-L1 cells reached confluence in the 6-well plate, and then the medium was replaced with the differentiation induction medium, followed by differentiation induction. 48 hours later, the medium was replaced with the differentiation promotion medium, and thereafter, the medium was replaced with the differentiation promotion medium every two days. 7 days after the initiation of the differentiation induction, mRNA was extracted using Sepasol-RNA I Super (trade name; manufactured by Nacalai Tesque, Inc.), and the mRNA expression amounts of 36B4, aP2 and adiponectin, which were indicators of an early period of adipocyte differentiation, were measured using Light Cycler (TM). Also, the medium 7 days after the differentiation induction was taken in an amount of 1 mL from each well, and the amount of adiponectin in the medium supernatant was measured using a mouse/rat adiponectin ELISA kit (manufactured by Otsuka Pharmaceutical Co., Ltd.). […]
Only the strips of the antibody plates necessary for the analysis were taken out. […] Incidentally, the standard solutions always were measured for each measurement and each plate. […]
(In general: An ELISA detects its analyte on a solid surface through an enzyme-linked reagent.)

On to `CC(C)=CCC/C(C)=C/COc1c2ccoc2cc2oc(=O)ccc12` [Bergamottin, bergamottin], for which the PPARα ligand activity was found to be 95 ± 12.9 at PPARα (0.1 μM); 92 ± 8.0 on PPARα (1.0 μM); 118 ± 6.1 at PPARα (5.0 μM); 194 ± 15.0 at PPARα (10 μM); 350 ± 25.5 on PPARα (20 μM); 622 ± 79.6 on PPARα (50 μM). On PPARα (80 μM), this molecule came in with a PPARα ligand activity of 558 ± 39.4. For the same molecule, the Adiponectin secretion amount in the experiment on 3T3-L1 cells (1 μM) is 4.37 ± 0.12; in the experiment with 3T3-L1 cells (5 μM), 8.14 ± 0.36.
